The values below are quoted from earlier work in patent US20240373890A1, “SWEETENER AND FLAVORING COMPOSITIONS PREPARED BY GLYCOSYLATED MOGROSIDES OR MONK FRUIT EXTRACTS, METHOD OF MAKING AND METHOD OF USE THEREOF” (EPC NATURAL PRODUCTS CO., LTD., priority 2021, published 2024).

Residues, ends and D or L forms follow the SMILES beside them.

The conditions of this series: depends on the tested concentration compared with sucrose.
With `COC(=O)[C@H](Cc1ccccc1)NC(=O)[C@@H](N)CC(=O)O` [Aspartame] (H-Asp-Phe-OMe), the “Sweetness intensity compared with sucrose” value is given as 160-200 times.
Turning to `C[C@H](CC[C@@H](O[C@@H]1O[C@H](CO[C@@H]2O[C@H](CO)[C@@H](O)[C@H](O)[C@H]2O)[C@@H](O)[C@H](O)[C@H]1O[C@@H]1O[C@H](CO)[C@@H](O)[C@H](O)[C@H]1O)C(C)(C)O)[C@H]1CC[C@@]2(C)[C@@H]3CC=C4[C@@H](CC[C@H](O[C@@H]5O[C@H](CO[C@@H]6O[C@H](CO)[C@@H](O)[C@H](O)[C@H]6O)[C@@H](O)[C@H](O)[C@H]5O)C4(C)C)[C@]3(C)[C@H](O)C[C@]12C` [mogroside V], the “Sweetness intensity compared with sucrose” value is listed as 250-300 times.
With `O=S(=O)([O-])NC1CCCCC1.[Na+]` [sodium cyclamate], the “Sweetness intensity compared with sucrose” value is “about 30 times”.
In the case of `OC[C@H]1O[C@H](O[C@]2(CCl)O[C@H](CCl)[C@@H](O)[C@@H]2O)[C@H](O)[C@@H](O)[C@H]1Cl` [sucralose], the “Sweetness intensity compared with sucrose” value is listed as “about 600 times”.
With thaumatin, the “Sweetness intensity compared with sucrose” value was “about 2000 times”.
